According to patent US9108937B2 (Merck Sharp & Dohme Corp., priority 2010, dated 2015):

Target: T1, human mGluR2 (Homo sapiens, UniProt Q14416)
T1 construct: expressed in transfected cells
Assay: FLIPR Ca2+ mobilization assay, potentiation of glutamate response
Format: cell-based
Conditions: CHO dhfr- cells expressing human mGluR2 and Gα16; potentiation after EC20 glutamate (900 nM); read-out: Representative FLIPR EC50 Values: IC50
Procedure: Inhibition constants are determined as follows. The compounds of the present invention may be tested in a fluorescence laser imaging plate reader (FLIPR) based assay. This assay is a common functional assay to monitor Ca^2+ mobilization in whole cells expressing recombinant receptor coupled with a promiscuous G-protein. CHO dhfr− cells stably expressing recombinant human mGluR2 and Gα16 loaded with Fluo-4 AM (Invitrogen, Carlsbad Calif.) are treated with dose responses of compounds and the Ca^2+ response is monitored on a FLIPR384 (Molecular Devices, Sunnydale Calif.) for agonist activity. The potentiation response is monitored after a subsequent addition of an EC20 concentration of glutamate (900 nM). The maximum calcium response at each concentration of compound for agonist or potentiation are plotted as dose responses and the curves are fitted with a four parameters logistic equation giving EC50 and Hill coefficient using the iterative non linear curve fitting software program.

T1 sequence (Q14416 19-872): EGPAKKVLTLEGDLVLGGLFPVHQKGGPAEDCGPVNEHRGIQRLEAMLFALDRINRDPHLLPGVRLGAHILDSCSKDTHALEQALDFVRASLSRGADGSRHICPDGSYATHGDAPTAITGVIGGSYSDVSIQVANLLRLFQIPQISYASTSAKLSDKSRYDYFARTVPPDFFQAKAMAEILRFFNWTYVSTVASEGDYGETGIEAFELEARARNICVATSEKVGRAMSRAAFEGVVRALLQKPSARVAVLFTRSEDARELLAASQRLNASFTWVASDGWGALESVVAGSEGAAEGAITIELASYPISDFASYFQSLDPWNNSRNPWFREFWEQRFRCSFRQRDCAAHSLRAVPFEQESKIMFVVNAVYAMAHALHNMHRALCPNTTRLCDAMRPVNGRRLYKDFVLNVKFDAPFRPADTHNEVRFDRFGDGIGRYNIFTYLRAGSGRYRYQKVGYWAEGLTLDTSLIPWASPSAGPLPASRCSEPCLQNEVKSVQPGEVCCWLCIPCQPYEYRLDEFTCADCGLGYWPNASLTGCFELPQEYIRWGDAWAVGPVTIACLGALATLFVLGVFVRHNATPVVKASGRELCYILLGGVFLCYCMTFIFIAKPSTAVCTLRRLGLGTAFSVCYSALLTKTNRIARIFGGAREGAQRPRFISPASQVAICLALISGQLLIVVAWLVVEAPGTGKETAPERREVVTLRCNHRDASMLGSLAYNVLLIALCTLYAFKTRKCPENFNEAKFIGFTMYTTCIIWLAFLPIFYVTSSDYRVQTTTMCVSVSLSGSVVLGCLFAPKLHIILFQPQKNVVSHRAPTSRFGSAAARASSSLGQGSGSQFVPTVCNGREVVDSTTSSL

| SMILES | EC50 [nM] |
| --- | --- |
| CN1c2cc(-c3ccccc3C#N)ccc2N(CC2CC2)S1(=O)=O [Compound 1-5, 2-[1-(cyclopropylmethyl)-3-methyl-2,2-dioxido-1,3-dihydro-2,1,3-benzothiadiazol-5-yl]benzonitrile] | 5 |
| Cc1cccnc1-c1ccc2c(c1)N(C)S(=O)(=O)N2CC1CC1 [Compound 3-1, 1-(cyclopropylmethyl)-3-methyl-5-(3-methylpyridin-2-yl)-1,3-dihydro-2,1,3-benzothiadiazole 2,2-dioxide] | 490 |
| CN1c2cc(-c3cccc(N4CCS(=O)(=O)CC4)c3)ccc2N(CC2CCC2)S1(=O)=O [Compound 8-1, 1-(cyclobutylmethyl)-5-[3-(1,1-dioxidothiomorpholin-4-yl)phenyl]-3-methyl-1,3-dihydro-2,1,3-benzothiadiazole 2,2-dioxide] | 110 |
| CN1c2cc(-c3cc(Oc4ccnc(C#N)c4)ccc3C#N)ccc2N(CC2CC2(F)F)S1(=O)=O (stereo not drawn) [Compound 12-4, 4-(4-cyano-3-{1-[(2,2-difluorocyclopropyl)methyl]-3-methyl-2,2-dioxido-1,3-dihydro-2,1,3-benzothiadiazol-5-yl}phenoxy) pyridine-2-carbonitrile] | 0.5 |
| CN1c2cc(-c3cc(C(C)(C)O)ccc3F)ccc2N(CC2CC2(F)F)S1(=O)=O (stereo not drawn) [Compound 17-2] | 22 |
| CN1c2cc(-c3cc(CN4CCc5onc(O)c5C4)ccc3C#N)ccc2N(CC2CC2(F)F)S1(=O)=O (stereo not drawn) [Compound 20-1, 2-{1-[(2,2-difluorocyclopropyl)methyl]-3-methyl-2,2-dioxido-1,3-dihydro-2,1,3-benzothiadiazol-5-yl}-4-[(3-hydroxy-6,7-dihydroisoxazolo[4,5-c]pyridin-5(4H)-yl)methyl]benzonitrile] | 0.8 |
| CN1c2cc(-c3cccc(CNc4ncccc4C#N)c3)ccc2N(CC2CC2)S1(=O)=O [Compound 24-1, 2-({3-[1-(cyclopropylmethyl)-3-methyl-2,2-dioxido-1,3-dihydro-2,1,3-benzothiadiazol-5-yl]benzyl}amino)nicotinonitrile] | 130 |
| CN1c2cc(-c3cccc(CN4CCN(S(C)(=O)=O)CC4)n3)ccc2N(CC2CC2(F)F)S1(=O)=O (stereo not drawn) [Compound 25-2] | 24 |
| CN1c2nc(-c3ccccc3C#N)ccc2N(CC(C)(C)C)S1(=O)=O [Compound 30-2, 2-[1-(2,2-dimethylpropyl)-3-methyl-2,2-dioxido-1,3-dihydro[1,2,5]thiadiazolo[3,4-b]pyridin-5-yl]benzonitrile] | 9 |
| CN1c2nc(-c3ccc(N4CCN(S(C)(=O)=O)CC4)cc3)ccc2N(CC2CC2(F)F)S1(=O)=O (stereo not drawn) [Compound 32-2, 1-[(2,2-difluorocyclopropyl)methyl]-3-methyl-5-{4-[4-(methylsulfonyl)piperazin-1-yl]phenyl}-1,3-dihydro[1,2,5]thiadiazolo[3,4-b]pyridine 2,2-dioxide] | 140 |
| CN1c2nc(-c3cc(Oc4ccnc(C#N)c4)ccc3C#N)ccc2N(CC2CC2(F)F)S1(=O)=O (stereo not drawn) [Compound 36-2, 4-(4-cyano-3-{1-[(2,2-difluorocyclopropyl)methyl]-3-methyl-2,2-dioxido-1,3-dihydro[1,2,5]thiadiazolo[3,4-b]pyridin-5-yl}phenoxy)pyridine-2-carbonitrile] | 3 |
| Cc1ccc(C(C)(C)O)cc1-c1ccc2c(n1)N(C)S(=O)(=O)N2CC1CC1 [Compound 38-3, 2-{3-[1-(cyclopropylmethyl)-3-methyl-2,2-dioxido-1,3-dihydro [1,2,5]thiadiazolo[3,4-b]pyridin-5-yl]-4-methylphenyl}propan-2-ol] | 25 |
| CC(=O)N1CCN(Cc2ccc(C)c(-c3ccc4c(n3)N(C)S(=O)(=O)N4CC3CC3(F)F)c2)CC1 (stereo not drawn) [Compound 39-2, 1-[4-(3-{1-[(2,2-difluorocyclopropyl)methyl]-3-methyl-2,2-dioxido-1,3-dihydro[1,2,5]thiadiazolo[3,4-b]pyridin-5-yl}-4-methylbenzyl)piperazin-1-yl]ethanone] | 11 |
| CN1c2nc(-c3cccc(CN4CCS(=O)(=O)CC4)c3F)ccc2N(CC2CC2(F)F)S1(=O)=O (stereo not drawn) [Compound 42-3, 1-[(2,2-difluorocyclopropyl)methyl]-5-{3-[(1,1-dioxidothiomorpholin-4-yl)methyl]-2-fluorophenyl}-3-methyl-1,3-dihydro [1,2,5]thiadiazolo[3,4-b]pyridine 2,2-dioxide] | 9 |
| Cc1ccc(CN2CCN(C(=O)[C@@H](C)O)CC2)cc1-c1ccc2c(n1)N(C)S(=O)(=O)N2CC1CC1(F)F (stereo partly drawn) [Compound 43-3, (2R)-1-[4-(3-{1-[(2,2-difluorocyclopropyl)methyl]-3-methyl-2,2-dioxido-1,3-dihydro[1,2,5]thiadiazolo[3,4-b]pyridin-5-yl}-4-methylbenzyl)piperazin-1-yl]-2-hydroxypropan-1-one] | 8 |
